Measurements as given in US20050266014A1, “Tumor antigen based on products of the tumor suppressor gene WT1” (HARUO SUGIYAMA, priority 1998, published 2005).
Where two headings read alike, the source gives them in different places. Values belong to the molecule of their own block, whether it stands above or below them. No end group written: not given here.

Legend:
D^b of MHC class I = target: T1, D^b of MHC class I (Mus musculus, UniProt P01899); assay: Binding of peptides to D^b on RMA-S cells (fluorescent antibody staining, binding dissociation constant)
T1 construct: the cell line (RMA-S) that expresses K^b and D^b molecules; endogenous in cells; host or cells: RMA-S cells
T1 sequence (P01899 25-362): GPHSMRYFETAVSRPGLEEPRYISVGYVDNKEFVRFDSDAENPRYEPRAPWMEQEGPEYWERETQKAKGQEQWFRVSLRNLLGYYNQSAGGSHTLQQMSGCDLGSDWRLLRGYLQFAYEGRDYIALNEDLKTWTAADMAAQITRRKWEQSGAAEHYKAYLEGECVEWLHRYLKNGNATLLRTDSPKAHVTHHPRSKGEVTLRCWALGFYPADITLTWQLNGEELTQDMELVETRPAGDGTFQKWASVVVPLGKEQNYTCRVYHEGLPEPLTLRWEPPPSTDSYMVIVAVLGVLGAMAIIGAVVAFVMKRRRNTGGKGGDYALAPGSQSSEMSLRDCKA
T1 sequence (P01887 21-119 partner): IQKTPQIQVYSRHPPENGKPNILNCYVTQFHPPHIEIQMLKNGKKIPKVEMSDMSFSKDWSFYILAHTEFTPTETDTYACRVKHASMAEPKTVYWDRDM
Experimental: (§1) Thus, RMA-S was cultured at 26° C. to effect high expression of MHC class I, and the cultured cells were incubated with the solutions of the test peptides at 37° C. for 1 hour. […] Then using fluorescently labeled monoclonal antibody that recognizes MHC class I (K^b, D^b), RMA-S cells were stained.

K^b of MHC class I = target: T2, K^b of MHC class I (Mus musculus, UniProt P01901); assay: Binding of peptides to K^b on RMA-S cells (fluorescent antibody staining, binding dissociation constant); details: peptide 37° C. 1 hour
T2 construct: the cell line (RMA-S) that expresses K^b and D^b molecules; endogenous in cells; host or cells: RMA-S cells
T2 sequence (P01901 22-369): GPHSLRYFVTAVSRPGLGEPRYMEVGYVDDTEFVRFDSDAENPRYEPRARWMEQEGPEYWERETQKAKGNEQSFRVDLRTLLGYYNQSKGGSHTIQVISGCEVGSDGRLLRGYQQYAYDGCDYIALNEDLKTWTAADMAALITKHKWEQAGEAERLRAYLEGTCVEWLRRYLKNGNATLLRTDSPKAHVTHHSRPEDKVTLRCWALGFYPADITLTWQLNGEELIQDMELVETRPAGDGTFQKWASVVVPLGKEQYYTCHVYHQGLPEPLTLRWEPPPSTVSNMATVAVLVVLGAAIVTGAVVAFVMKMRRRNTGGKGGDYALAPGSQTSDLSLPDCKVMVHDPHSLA
T2 sequence (P01887 21-119 partner): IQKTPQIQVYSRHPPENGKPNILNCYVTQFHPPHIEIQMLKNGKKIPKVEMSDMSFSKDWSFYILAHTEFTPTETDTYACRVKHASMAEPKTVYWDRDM
Experimental: as §1, with “stained. Finally, the binding dissociation constant was calculated from the average amount of fluorescence per cell (Immunol. Lett., 47: 1, 1995).” for “stained.”

HLA-A* 0201 = target: T3, HLA-A* 0201 (Homo sapiens, UniProt P04439, D140Y/D185E/D98H/E176V/E277Q/G131W/G231S/I119V/I121R/I166T/I218V/L300P/L318F/N151K/N90K/P208A/P217A/Q86G/Q94H/R138H/R169H/T345S); assay: Binding of peptides to HLA-A* 0201 on T2 cells (FACS, binding dissociation constant); details: 37° C. 1 hour
T3 construct: T2 cells having the empty HLA-A* 0201 molecules; endogenous in cells; host or cells: T2 cells

induced CTL = assay: FACS analysis of surface markers of induced CTL, Example 3; type: cell-based; details: human CTL, FIGS. 5 to 10
Experimental: One week later, T2 cells that were irradiated after incubating for 1 hour with the peptide (20 μg/ml) were added to the above culture system for restimulation. From the following day, human IL-2 (final concentration 100 JRU/ml) was added to the culture.
Subsequently, after repeating, for five times, stimulation with the T2 cells that were irradiated after being pulsed with the peptide, a killing assay was performed using, as the target, the T2 cells pulsed with the peptide or the T2 cells not pulsed with the peptide. The surface markers of the induced CTL were subjected to FACS analysis.

[1] = target: T4, D^b of mouse MHC class I, on RMA-S cells (mouse, UniProt P01887 21-119; P01899 25-362); assay: MHC stabilisation on RMA-S cells, staining with fluorescent anti-MHC class I antibody, flow cytometry
T4 construct: whole, on cells; Empty MHC class I on RMA-S cells cultured at 26 C; also called H-2D^b
T4 sequence (MHC heavy, looked up): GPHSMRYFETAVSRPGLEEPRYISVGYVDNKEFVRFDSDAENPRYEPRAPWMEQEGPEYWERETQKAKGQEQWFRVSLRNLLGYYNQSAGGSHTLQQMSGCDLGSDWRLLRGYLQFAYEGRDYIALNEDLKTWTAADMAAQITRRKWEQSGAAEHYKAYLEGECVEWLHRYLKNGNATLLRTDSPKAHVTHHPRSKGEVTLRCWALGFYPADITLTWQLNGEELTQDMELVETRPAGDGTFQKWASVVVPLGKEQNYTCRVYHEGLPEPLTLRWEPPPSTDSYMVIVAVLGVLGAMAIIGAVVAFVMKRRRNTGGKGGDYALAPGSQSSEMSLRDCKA
T4 sequence (b2m, looked up): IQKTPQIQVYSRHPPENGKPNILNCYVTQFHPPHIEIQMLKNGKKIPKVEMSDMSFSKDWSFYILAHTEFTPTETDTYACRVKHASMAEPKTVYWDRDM
Experimental: as §1, with “stained. Finally, the binding dissociation constant was calculated from the average amount of fluorescence per cell (Immunol. Lett., 47: 1, 1995).” for “stained.”

[2] = target: T5, K^b of mouse MHC class I, on RMA-S cells (mouse, UniProt P01887 21-119; P01901 22-369); assay: as above
T5 construct: whole, on cells; Empty MHC class I on RMA-S cells cultured at 26 C; also called H-2K^b
T5 sequence (MHC heavy, looked up): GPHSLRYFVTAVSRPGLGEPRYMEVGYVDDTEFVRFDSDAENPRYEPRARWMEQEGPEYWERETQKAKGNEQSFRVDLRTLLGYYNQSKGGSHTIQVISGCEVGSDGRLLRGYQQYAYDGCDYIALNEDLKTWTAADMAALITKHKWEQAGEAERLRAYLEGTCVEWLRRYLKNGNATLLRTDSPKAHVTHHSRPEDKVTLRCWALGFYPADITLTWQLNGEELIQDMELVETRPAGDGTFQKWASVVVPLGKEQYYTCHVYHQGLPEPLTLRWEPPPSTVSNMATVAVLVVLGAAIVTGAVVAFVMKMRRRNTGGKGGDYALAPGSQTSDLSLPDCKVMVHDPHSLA
T5 sequence (b2m, looked up): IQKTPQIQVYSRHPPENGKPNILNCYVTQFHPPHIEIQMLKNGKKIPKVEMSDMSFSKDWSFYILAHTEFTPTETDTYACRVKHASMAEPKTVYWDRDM
Experimental: as §1, with “stained. Finally, the binding dissociation constant was calculated from the average amount of fluorescence per cell (Immunol. Lett., 47: 1, 1995).” for “stained.”

HLA-A* 0201, on T2 cells = target: T6, HLA-A* 0201, on T2 cells (human); assay: peptide binding to empty HLA-A*0201 on T2 cells, staining with fluorescent anti-HLA-A2.1 antibody, FACS
T6 construct: whole, on cells; Empty HLA-A*0201 molecules on T2 cells; also called HLA-A2.1; A* 0201 of human HLA
Experimental: The above peptides and T2 cells having the empty HLA-A* 0201 molecules (J. Immunol., 150: 1763, 1993; Blood, 88: 2450, 1996) were incubated at 37° C. for 1 hour, and then the T2 cells were stained with fluorescently labeled monoclonal antibody that recognizes HLA-A2.1 to calculate the binding dissociation constant based on the average amount of fluorescence per cell in the FACS analysis.

[3] = RMA-S cells, peptide 37° C. 1 hour, read-out: binding dissociation constant (Kd value) with D^b (converted)

Molecule: CSCC[C@H](NC(=O)[C@@H](N)CCCNC(=N)N)C(=O)N[C@@H](Cc1ccccc1)C(=O)N1CCC[C@H]1C(=O)N[C@@H](CC(N)=O)C(=O)N[C@@H](C)C(=O)N1CCC[C@H]1C(=O)N[C@@H](Cc1ccc(O)cc1)C(=O)N[C@@H](CC(C)C)C(=O)O [D^b 126]
Kd (D^b of MHC class I): 521 nM

Molecule: CMTWNQMNL [D^b 235]
Kd (D^b of MHC class I; [3]): 715 nM

Molecule: GASAYGSL [K^b 45]
Kd (K^b of MHC class I): 26400 nM

Molecule: YSSDNLYQM [D^b 221]
Kd (D^b of MHC class I; [3]): 1760 nM

B1: D^b 126 peptide (peptide)
peptide: RMFPNAPYL
notes: It was tested on both H-2D^b and HLA-A*0201
log of binding dissociation constant (Kd) [1]: -6.28 log

Molecule: CMTWNQMNL [D^b 235 peptide]
log of binding dissociation constant (Kd) [1]: -6.15 log

Molecule: GASAYGSL [K^b 45 peptide]
log of binding dissociation constant (Kd) [2]: -4.58 log

Molecule: YSSDNLYQM [D^b 221 peptide]
log of binding dissociation constant (Kd) [1]: -5.75 log

Now from value to molecule, other results behind:

Kd (K^b of MHC class I): 1730 nM
Molecule: CNKRYFKL [K^b 330]

Kd (HLA-A* 0201): 7610 nM
Molecule: SLGEQQYSV [WH 187]
surface markers of induced CTL (CD4, CD8) (induced CTL): The CD4-positive cells and the CD8-positive cells were almost equal in the number

Kd (HLA-A* 0201, on T2 cells): 7610 nM
Molecule: SLGEQQYSV [WH 187 peptide]

log of binding dissociation constant (Kd) [2]: -5.76 log
Molecule: CNKRYFKL [K^b 330 peptide]
